Measured values as given in patent US20220324865A1 (Bayer Aktiengesellschaft, priority 2018, published 2022).

Each molecule was assayed against T1, human EP3 receptor (Homo sapiens, UniProt P43115) (assay: Cellular in vitro assay for determining EP3 receptor activity (human EP3 cell line, sulprostone-stimulated calcium luminescence)). Settings: CHO cells expressing human EP3 and mitochondrial Clytin; antagonist mode, sulprostone at EC50; read-out: EP3 CHO mtCLY ANTAG IC50.
T1 construct: expressed in transfected cells; host or cells: CHO K1 (Chinese Hamster Ovary), stably co-transfected with Galpha16 and mitochondrial clytin
T1 sequence (P43115 1-390): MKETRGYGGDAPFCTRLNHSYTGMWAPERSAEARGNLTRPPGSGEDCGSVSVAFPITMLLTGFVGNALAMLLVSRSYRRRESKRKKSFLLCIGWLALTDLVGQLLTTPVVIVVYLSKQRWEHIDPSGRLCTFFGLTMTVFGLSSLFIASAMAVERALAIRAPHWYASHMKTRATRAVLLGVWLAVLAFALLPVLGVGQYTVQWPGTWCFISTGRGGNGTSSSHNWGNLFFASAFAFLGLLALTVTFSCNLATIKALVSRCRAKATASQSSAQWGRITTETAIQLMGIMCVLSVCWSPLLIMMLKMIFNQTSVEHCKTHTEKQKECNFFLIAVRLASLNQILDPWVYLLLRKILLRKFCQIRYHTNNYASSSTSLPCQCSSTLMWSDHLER
Format: cell-based
Experimental: B-1. Cellular In Vitro Assay for Determining EP3 Receptor Activity
The identification of antagonists of the EP3 receptor from humans and rats as well as the quantification of the activity of the compounds of the invention was carried out using recombinant cell lines. These cell lines originally derive from a hamsters ovary epithelial cell (Chinese Hamster Ovary, CHO K1, ATCC: American Type Culture Collection, Manassas, Va. 20108, USA). The test cell lines constitutively express the human or rat EP3 receptors. The naturally Gαi-coupled human and rat EP3 receptors were stably co-transfected with Gα16 into cells that are also stably transfected with a mitochondrial form of the calcium-sensitive photoproteins Clytin (human EP3) or Photina (rat EP3), which, after reconstitution with the cofactor coelenterazine, emit light when there are increases in free calcium concentrations (Nature 1992, 358, 325-327; Gene 1995, 153 (2), 273-274). The resulting EP3 receptor cells react to stimulation of the recombinantly expressed EP3 receptors by the agonist sulprostone with intracellular release of calcium ions, which can be quantified by the resulting photoprotein luminescence. Antagonists inhibit the receptor signaling, leading to reduced calcium release and luminescence. The bioluminescence of the cell lines is detected using a suitable luminometer (Trends Pharmacol. Sci. 1996, 17, 235-237).
Human and Rat EP3 Cell Lines:
On the day before the assay, the cells are plated out in culture medium (OptiMEM, 1% FCS, 2 mM glutamine, 10 mM HEPES, 5 μg/ml coelenterazine) in 384-well microtiter plates and kept in a cell incubator (96% humidity, 5% v/v CO2, 37° C.). On the day of the assay, test compounds in various concentrations are placed for 10 minutes in the wells of the microtiter plate before the agonist sulprostone at EC50 concentration is added. The resulting light signal is measured immediately in a luminometer. All concentrations are measured in quadruples.

IC50 | SMILES
1.05 nM | O=C(NCC(O)C(F)(F)F)c1nn2cc(-c3ccc(Cl)c(Cl)c3)[nH]c(=O)c2c1C1CC1 (racemic) [6-415]
0.7 nM | O=C(NC(c1ccc(F)cc1)C1(O)CC1)c1nn2cc(-c3ccc(Cl)c(Cl)c3)[nH]c(=O)c2c1C1CC1 (racemic) [6-422]
0.26 nM | Cc1ccc(-c2cn3nc(C(=O)NCC(O)C(F)(F)F)c(C4CC4)c3c(=O)[nH]2)cc1C (racemic) [6-435]
1.45 nM | Cc1ccc(-c2cn3nc(C(=O)NC(CN4CCOCC4)c4ccc(F)cc4)c(C4CC4)c3c(=O)[nH]2)cc1C (racemic) [6-441]
3.23 nM | Cc1ccc(-c2cn3nc(C(=O)NC(CN(C)C)c4ccc(F)cc4)c(C4CC4)c3c(=O)[nH]2)cc1C (racemic) [6-444]
12 nM | Cc1ccc(-c2cn3nc(C(=O)NC(C)CN4CCOCC4)c(C4CC4)c3c(=O)[nH]2)cc1C (racemic) [6-450]
1.75 nM | O=C(NCC(O)C(F)(F)F)c1nn2cc(-c3ccc4c(c3)OCCO4)[nH]c(=O)c2c1C1CC1 (racemic) [6-465]
13 nM | O=C(NC1CCN(C2CC2)C1)c1nn2cc(-c3ccc4ccccc4c3)[nH]c(=O)c2c1C(F)(F)F (racemic) [6-499]
5.45 nM | CN(C)CC(NC(=O)c1nn2cc(-c3ccc4ccccc4c3)[nH]c(=O)c2c1C(F)(F)F)c1ccc(F)cc1 (racemic) [6-506]
8.53 nM | CN1CCC(NC(=O)c2nn3cc(-c4ccc5ccccc5c4)[nH]c(=O)c3c2C(F)(F)F)(c2ccc(F)cc2)C1 (racemic) [6-510]
2.23 nM | O=C(N[C@@H]1CCN(CC(F)(F)F)C1)c1nn2cc(-c3ccc4ccccc4c3)[nH]c(=O)c2c1C(F)(F)F (racemic) [6-521]
16.9 nM | CC(CN1CCOCC1)NC(=O)c1nn2cc(-c3ccc4ccccc4c3)[nH]c(=O)c2c1C(F)(F)F (racemic) [6-522]
1.55 nM | Cc1cc(-c2cn3nc(C(=O)NC(c4ccc(F)cc4)C4(O)CC4)c(C4CC4)c3c(=O)[nH]2)ccc1F (racemic) [6-650]
4.36 nM | CN(C)CC(NC(=O)c1cc2c(=O)[nH]c(-c3ccc4ccccc4c3)cn2n1)c1ccccc1 (racemic) [Example 1-4, rac-N-[2-(Dimethylamino)-1-phenylethyl]-6-(naphthalen-2-yl)-4-oxo-4,5-dihydropyrazolo[1,5-a]-pyrazine-2-carboxamide]
2.15 nM | COc1ccc(C(CCO)NC(=O)c2cc3c(=O)[nH]c(-c4ccc(C)c(C)c4)cn3n2)cc1 (racemic) [Example 1-11, rac-6-(3,4-Dimethylphenyl)-N-[3-hydroxy-1-(4-methoxyphenyl)propyl]-4-oxo-5H-pyrazolo[1,5-a]-pyrazine-2-carboxamide]
1.67 nM | Cc1ccc(-c2cn3nc(C(=O)NC(CCn4cncn4)c4ccccc4)cc3c(=O)[nH]2)cc1C (racemic) [Example 1-12, rac-6-(3,4-Dimethylphenyl)-4-oxo-N-[1-phenyl-3-(1,2,4-triazol-1-yl)propyl]-5H-pyrazolo[1,5-a]-pyrazine-2-carboxamide]

Continued, molecule first:

SMILES | IC50
O=C(NC(c1ccc(F)cc1)C1(O)CC1)c1nn2cc(-c3ccc(Cl)c(F)c3)[nH]c(=O)c2c1C1CC1 (racemic) [6-96] | 0.49 nM
Cc1ccc(-c2cn3nc(C(=O)NCC(O)C(F)(F)F)c(C(F)(F)F)c3c(=O)[nH]2)cc1C (racemic) [6-115] | 0.95 nM
Cc1ccc(-c2cn3nc(C(=O)NCC(N)C(F)(F)F)c(C(F)(F)F)c3c(=O)[nH]2)cc1C (racemic) [6-118] | 5.6 nM
Cc1cc(-c2cn3nc(C(=O)NC(CO)c4ccc(F)cc4)c(C4CC4)c3c(=O)[nH]2)ccc1C(F)(F)F (racemic) [6-129] | 5.45 nM
Cc1cc(-c2cn3nc(C(=O)NCC(N)C(F)(F)F)c(C4CC4)c3c(=O)[nH]2)ccc1C(F)(F)F (racemic) [6-130] | 29.5 nM
Cc1cc(-c2cn3nc(C(=O)NC(c4ccc(F)cc4)C(C)(C)O)c(C4CC4)c3c(=O)[nH]2)ccc1C(F)(F)F (racemic) [6-133] | 5.05 nM
Cc1ccc(-c2cn3nc(C(=O)NC(C)C4CC4)c(C(F)(F)F)c3c(=O)[nH]2)cc1F (racemic) [6-147] | 5.6 nM
Cc1ccc(-c2cn3nc(C(=O)NCC(O)C(F)(F)F)c(C(F)(F)F)c3c(=O)[nH]2)cc1Cl (racemic) [6-158] | 1.55 nM
Cc1ccc(-c2cn3nc(C(=O)NC(CO)C(F)(F)F)c(C(F)(F)F)c3c(=O)[nH]2)cc1Cl (racemic) [6-161] | 2.3 nM
Cc1ccc(-c2cn3nc(C(=O)NCC(C)(N)C(F)(F)F)c(C(F)(F)F)c3c(=O)[nH]2)cc1Cl (racemic) [6-169] | 4.05 nM
Cc1ccc(-c2cn3nc(C(=O)NC(C)C4CCC4)c(C(F)(F)F)c3c(=O)[nH]2)cc1Cl (racemic) [6-193] | 4.05 nM
Cc1cc(-c2cn3nc(C(=O)NC(c4ccc(F)cc4)C4(O)CC4)c(C(F)(F)F)c3c(=O)[nH]2)ccc1Cl (racemic) [6-210] | 1.45 nM
Cc1cc(-c2cn3nc(C(=O)NC(C)C4CCC4)c(C(F)(F)F)c3c(=O)[nH]2)ccc1Cl (racemic) [6-222] | 1.11 nM
Cc1ccc(-c2cn3nc(C(=O)NCC(O)C(F)(F)F)c(C4CC4)c3c(=O)[nH]2)cc1C(F)(F)F (racemic) [6-243] | 2 nM
Cc1ccc(-c2cn3nc(C(=O)NC(CO)C(F)(F)F)c(C4CC4)c3c(=O)[nH]2)cc1C(F)(F)F (racemic) [6-248] | 2.45 nM
Cc1ccc(-c2cn3nc(C(=O)NCC(O)C(F)(F)F)c(C4CC4)c3c(=O)[nH]2)cc1Cl (racemic) [6-258] | 0.82 nM
CCN1CCC(NC(=O)c2nn3cc(-c4ccc(Cl)c(C)c4)[nH]c(=O)c3c2C2CC2)(C(F)(F)F)C1 (racemic) [6-292] | 2.05 nM

SMILES | IC50
Cc1cc(-c2cn3nc(C(=O)NC(C)C4CCC4)c(C4CC4)c3c(=O)[nH]2)ccc1Cl (racemic) [6-298] | 2.85 nM
Cc1cc(-c2cn3nc(C(=O)NCCC(O)C(F)(F)F)c(C4CC4)c3c(=O)[nH]2)ccc1Cl (racemic) [6-309] | 1.13 nM
Cc1cc(-c2cn3nc(C(=O)NCC(O)C(F)(F)F)c(C4CC4)c3c(=O)[nH]2)ccc1Cl (racemic) [6-312] | 1.3 nM
Cc1cc(-c2cn3nc(C(=O)NCC(C)(N)C(F)(F)F)c(C4CC4)c3c(=O)[nH]2)ccc1Cl (racemic) [6-319] | 1.17 nM
Cc1ccc(-c2cn3nc(C(=O)NC(c4ccc(F)cc4)C(F)(F)CO)cc3c(=O)[nH]2)cc1C (racemic) [6-357] | 1.95 nM
Cc1ccc(-c2cn3nc(C(=O)NC4(c5ccc(F)cc5)CCN(C)C4)cc3c(=O)[nH]2)cc1C (racemic) [6-362] | 27 nM
Cc1ccc(-c2cn3nc(C(=O)NCCC(O)C(F)(F)F)c(C4CC4)c3c(=O)[nH]2)cc1F (racemic) [6-366] | 2.2 nM
Cc1ccc(-c2cn3nc(C(=O)NCC(O)C(F)F)c(C4CC4)c3c(=O)[nH]2)cc1F (racemic) [6-369] | 3.05 nM
Cc1ccc(-c2cn3nc(C(=O)N[C@@]4(C)CCS(=O)(=O)C4)c(C4CC4)c3c(=O)[nH]2)cc1F (racemic) [6-376] | 5.07 nM
Cc1ccc(-c2cn3nc(C(=O)NC(c4ccc(F)cc4)C4(O)CC4)c(C4CC4)c3c(=O)[nH]2)cc1F (racemic) [6-381] | 1.52 nM
Cc1ccc(-c2cn3nc(C(=O)NC(CO)C(F)(F)F)c(C4CC4)c3c(=O)[nH]2)cc1F (racemic) [6-392] | 4.4 nM
Cc1ccc(-c2cn3nc(C(=O)NC(C(C)(C)O)C(F)(F)F)c(C4CC4)c3c(=O)[nH]2)cc1F (racemic) [6-394] | 6.65 nM
Cc1ccc(-c2cn3nc(C(=O)NCC(N)C(F)(F)F)c(C4CC4)c3c(=O)[nH]2)cc1F (racemic) [6-395] | 6.6 nM
Cc1ccc(-c2cn3nc(C(=O)NC(c4ccc(F)cc4)C(C)(C)O)c(C4CC4)c3c(=O)[nH]2)cc1F (racemic) [6-402] | 0.82 nM
CCN1CCC(NC(=O)c2nn3cc(-c4ccc(C)c(F)c4)[nH]c(=O)c3c2C2CC2)(C(F)(F)F)C1 (racemic) [6-404] | 5.95 nM
Cc1ccc(-c2cn3nc(C(=O)NCC(O)C(F)(F)F)c(C)c3c(=O)[nH]2)cc1F (racemic) [6-409] | 7.12 nM
